This is an account of results in patent publication US20140249076A1, “AMYLIN-CALCITONIN CHIMERIC PEPTIDES CONJUGATED TO DURATION ENHANCING MOIETIES” (AMYLIN PHARMACEUTICALS, LLC, priority 2011, published 2014).

Numbered stars: 1 amine (or outer) side, 2 acyl side, 3 side chain; on linkers, the order of the positions; unused ones are H or OH. Bridge positions count the residues as written; N and C are the ends. Side chains are listed from the residue outwards. Peptide text beside a SMILES is read from it. * marks the point of attachment. γGlu = O=C(O)[C@H](CCC(=O)[*:2])N[*:1]; Palmitoyl = CCCCCCCCCCCCCCCC(=O)*

One test has as its target T1, Amylin receptor (Rattus norvegicus, UniProt P32214).
T1 construct: from tissue; read as rat nucleus accumbens membranes
T1 sequence (P32214 25-516): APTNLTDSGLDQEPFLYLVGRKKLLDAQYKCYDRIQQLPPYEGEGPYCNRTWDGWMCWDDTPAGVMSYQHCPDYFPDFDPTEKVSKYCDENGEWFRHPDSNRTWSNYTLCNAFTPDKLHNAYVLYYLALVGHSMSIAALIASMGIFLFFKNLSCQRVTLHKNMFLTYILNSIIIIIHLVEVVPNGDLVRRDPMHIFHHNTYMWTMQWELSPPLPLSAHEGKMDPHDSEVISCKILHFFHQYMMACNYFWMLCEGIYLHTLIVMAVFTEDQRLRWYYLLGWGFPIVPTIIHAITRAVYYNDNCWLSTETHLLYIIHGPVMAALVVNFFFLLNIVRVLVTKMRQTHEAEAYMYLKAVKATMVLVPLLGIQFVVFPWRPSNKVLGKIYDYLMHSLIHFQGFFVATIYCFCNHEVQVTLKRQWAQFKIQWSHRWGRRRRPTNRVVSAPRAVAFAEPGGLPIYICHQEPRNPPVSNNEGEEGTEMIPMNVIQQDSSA
T1 sequence (Q9JJ74 27-148 partner): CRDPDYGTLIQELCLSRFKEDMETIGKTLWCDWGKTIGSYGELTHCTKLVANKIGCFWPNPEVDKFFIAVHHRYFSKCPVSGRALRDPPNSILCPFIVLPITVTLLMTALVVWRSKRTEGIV
The experiment in a line: Amylin receptor binding assay (125I-rat amylin, RNA membranes). To be noted: Table 8. The protocol: Amylin receptor binding assay. RNA membranes can be incubated with approximately […] (final concentration) of ^125I-rat amylin (Bolton-Hunter labeled, PerkinElmer, Waltham, Mass.) and increasing concentrations of test compound for 1 hour at ambient temperature in, for example, 96-well polystyrene plates. […] Dried glass fiber plates can be combined with scintillant and counted on a multi-well Perkin Elmer scintillation counter.
(§1) A variety of receptor binding and functional activity assays were conducted using the peptide conjugates described herein. Receptor binding activity can be expressed, for example in Table 6, as an IC50 value, calculated from the raw data using an iterative curve-fitting program using a 4-parameter logistic equation (PRISM®, GraphPAD Software, La Jolla, Calif.), as known in the art.
For the amylin receptor binding assay, RNA membranes were incubated with approximately […] (final concentration) of ^125I-rat amylin (Bolton-Hunter labeled, PerkinElmer, Waltham, Mass.) and increasing concentrations of test compound for 1 hour at ambient temperature in 96-well polystyrene plates. […] Dried glass fiber plates were combined with scintillant and counted on a multi-well Perkin Elmer scintillation counter, as well known in the art.

Another test addresses T2, Calcitonin receptor (Rattus norvegicus, UniProt P32214).
T2 construct: expressed in transfected cells; host or cells: C1a-HEK cells (HEK cells stably expressing the receptor), membranes
T2 sequence (P32214 25-479 isoform P32214-2 limits assumed): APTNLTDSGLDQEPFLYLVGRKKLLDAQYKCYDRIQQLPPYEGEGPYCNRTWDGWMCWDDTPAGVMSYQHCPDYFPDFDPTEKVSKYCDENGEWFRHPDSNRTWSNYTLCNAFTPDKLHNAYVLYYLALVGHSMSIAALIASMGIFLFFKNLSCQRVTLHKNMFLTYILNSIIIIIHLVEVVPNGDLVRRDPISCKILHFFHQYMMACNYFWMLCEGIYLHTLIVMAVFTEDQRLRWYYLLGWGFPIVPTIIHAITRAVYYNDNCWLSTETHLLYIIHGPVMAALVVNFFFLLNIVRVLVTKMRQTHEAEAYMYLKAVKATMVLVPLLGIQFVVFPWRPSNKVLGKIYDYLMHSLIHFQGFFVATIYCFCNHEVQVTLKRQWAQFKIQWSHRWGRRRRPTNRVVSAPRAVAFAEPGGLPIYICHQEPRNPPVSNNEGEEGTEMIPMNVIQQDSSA
The test can be described thus: Calcitonin receptor binding assay (125I-human calcitonin, C1a-HEK cell membranes). The conditions noted are these: Table 8. The protocol:
Calcitonin receptor binding assay. C1a-HEK cell membranes can be incubated with approximately […] (final concentration) of ^125I-human calcitonin (PerkinElmer, Waltham, Mass.) and increasing concentrations of test compound for 1 hour at ambient temperature in, for example, 96-well polystyrene plates. […] Dried glass fiber plates can be combined with scintillant and counted on a multiwell Perkin Elmer scintillation counter.
as §1
For the calcitonin receptor binding assay, C1a-HEK cell membranes were incubated with approximately […] (final concentration) of ^125I-human calcitonin (PerkinElmer, Waltham, Mass.) and increasing concentrations of test compound for 1 hour at ambient temperature in 96-well polystyrene plates. […] Dried glass fiber plates were combined with scintillant and counted on a multiwell Perkin Elmer scintillation counter.

Another test relates to mice. The experiment in a line: Forced swim test (FST). To be noted: qualitative result; 0.03 mg/kg dosing, as in Example 8. The class given is in vivo, mouse. The text has this:
The forced swim test (FST) is a commonly used paradigm to evaluate antidepressant activity of drugs. The FST is based on measurement of the animal's floating time in a tank filled with water. When rats or mice are forced to swim in a deep cylinder with tepid water they become nearly immobile and cease trying to escape. Without wishing to be bound by any theory, it is believe that this characteristic immobile posture reflects a depressive-like state which is readily influenced by a wide variety of antidepressants. See, e.g., Hedou et al., 2001, Pharmacol, Biochem. Behay. 70:65-76; Chaki et al., 2003, J. Pharmacol. Exp. Ther. 304:818-826; Porsolt et al., 1977, Nature 266:730-732. Antidepressants decrease the immobility time in the FST. Vehicle or test compound can be delivered continuously for two weeks to mice by subcutaneously implanted osmotic pumps prior to the FST. Indeed, any route of administration (e.g., intraperitoneal, subcutaneous, oral and the like) is available. Mice can be placed in the water tank for assessment of climbing, swimming, and immobility over a defined trial session, typically 6 minutes. Test session parameters for mice and rats are typically different, as known in the art.
The forced swim test (FST) is a commonly used paradigm to evaluate antidepressant activity of drugs. […] Specifically, vehicle or test compound was delivered continuously for two weeks to mice by subcutaneously implanted osmotic pumps prior to the FST assay, by methods well known in the art. On day one, the patients were introduced into the tank for a 15 minute pre-swim session. On day two, the patients were placed back into the water tank for assessment of climbing, swimming, and immobility over a 6 minute trial session. The rate of compound infusion was 0.03 mg/kg/day.

The test system of test [1] is male Harlan Sprague-Dawley rats. The test can be described thus: Stress-induced hyperthermia (SIH) assay. Format: in vivo, rat. To be noted: 0.1 mg/kg IP, 18 hr pretreatment. The text has this:
Stress-induced hyperthermia (SIH). Body temperature and emotional state are closely related in humans. Without wishing to be bound by any theory, it is believed that stress-induced hyperthermia (SIH) in rodents has predictive validity for certain human anxiety/stress disorders. The SIH assay assesses the effect of test agents (e.g, anxiolytics) on core body temperature following restraint stress. See, for example, Zethof et al., 1994, Physiol. Behay. 55:109-115. Anxiolytics typically blunt the increase in body temperature, or hyperthermic response, following stress exposure. […] Test animals can then be patiented to two sequential rectal temperature measurements at a measured time interval (e.g, 30 min). The difference between the second temperature reading and the first temperature reading (ΔT) is the stress-induced hyperthermic response.
As described above, it is believed that stress-induced hyperthermia (SIH) in rodents (e.g., rats) has predictive validity for certain human anxiety/stress disorders. […] Temperature readings were obtained remotely at the time of injection and at t=0 and t=30 minutes. The SIH response was defined as the change from t=30 back to t=0 minutes, while effects on basal temperature were calculated as the change from t=0 back to the time of injection.

The term IC50 denotes the concentration that gives 50% inhibition. With `CC(C)C[C@H](NC(=O)[C@H](C)NC(=O)[C@@H]1CSSC[C@H](NC(=O)[C@@H](N)CCCCN)C(=O)N[C@@H](CC(N)=O)C(=O)N[C@@H]([C@@H](C)O)C(=O)N[C@@H](C)C(=O)N[C@@H]([C@@H](C)O)C(=O)N1)C(=O)N[C@@H](CCC(N)=O)C(=O)N[C@@H](CCCNC(=N)N)C(=O)N[C@@H](CC(C)C)C(=O)N[C@@H](C)C(=O)N[C@@H](CCC(N)=O)C(=O)N[C@@H](CCC(=O)O)C(=O)N[C@@H](CC(C)C)C(=O)N[C@@H](Cc1c[nH]cn1)C(=O)N[C@@H](CCCNC(=N)N)C(=O)N[C@@H](CC(C)C)C(=O)N[C@@H](CCC(N)=O)C(=O)N[C@H](C(=O)N[C@@H](Cc1ccc(O)cc1)C(=O)N1CCC[C@H]1C(=O)N[C@@H](CCCNC(=N)N)C(=O)N[C@H](C(=O)N[C@@H](CC(N)=O)C(=O)N[C@H](C(=O)NCC(=O)N[C@@H](CO)C(=O)N[C@@H](CC(N)=O)C(=O)N[C@H](C(=O)N[C@@H](Cc1ccc(O)cc1)C(N)=O)[C@@H](C)O)C(C)C)[C@@H](C)O)[C@@H](C)O` [Cmpd 17] (H-KCNTATCALQRLAQELHRLQTYPRTNVGSNTY-NH2; disulfide 2-7; N-terminus assumed), the IC50 on Amylin receptor was determined as 0.028 nM; at Calcitonin receptor, 0.095 nM. Moreover, in the test with mice, the “FST Assay, 0.03 mg/kg” value is listed as “Inactive”.
Turning to `CCCCCCCCCCCCCCCC(=O)N[C@@H](CCC(=O)NCCCC[C@H](NC(=O)[C@@H](NC(=O)[C@H](CCCNC(=N)N)NC(=O)[C@@H]1CCCN1C(=O)[C@H](Cc1ccc(O)cc1)NC(=O)[C@@H](NC(=O)[C@H](CCC(N)=O)NC(=O)[C@H](CC(C)C)NC(=O)[C@H](CCCNC(=N)N)NC(=O)[C@H](Cc1c[nH]cn1)NC(=O)[C@H](CC(C)C)NC(=O)[C@H](CCC(=O)O)NC(=O)[C@H](CCC(N)=O)NC(=O)[C@H](C)NC(=O)[C@H](CC(C)C)NC(=O)[C@H](CCCNC(=N)N)NC(=O)[C@H](CCC(N)=O)NC(=O)[C@H](CC(C)C)NC(=O)[C@H](C)NC(=O)[C@@H]1CSSC[C@H](NC(=O)[C@@H](N)CCCCN)C(=O)N[C@@H](CC(N)=O)C(=O)N[C@@H]([C@@H](C)O)C(=O)N[C@@H](C)C(=O)N[C@@H]([C@@H](C)O)C(=O)N1)[C@@H](C)O)[C@@H](C)O)C(=O)N[C@H](C(=O)NCC(=O)N[C@@H](CO)C(=O)N[C@@H](CC(N)=O)C(=O)N[C@H](C(=O)N[C@@H](Cc1ccc(O)cc1)C(N)=O)[C@@H](C)O)C(C)C)C(=O)O` [Cmpd 189, [K^26ε-(γ-Glu(Nα-C16-Chain))]-Cmpd 17] (H-KCNTATCALQRLAQELHRLQTYPRTK([γGlu-Palmitoyl])VGSNTY-NH2; disulfide 2-7 (inferred); N-terminus assumed), the “FST Assay, 0.03 mg/kg” value in the test on mice is reported as “Active”. Also, the SIH response result in test [1] is reported as “statistically insignificant reduction in SIH”.
